Assay results published in paper PMC6591177, “Small Molecule IL-36γ Antagonist as a Novel Therapeutic Approach for Plaque Psoriasis” (Scientific Reports, 2019).

What was measured:
[1] = biological target: T1, mouse IL-36γ (Mus musculus, UniProt Q8R460); assay: Affinity for mouse IL-36γ; format: binding
T1 sequence (Q8R460 13-164): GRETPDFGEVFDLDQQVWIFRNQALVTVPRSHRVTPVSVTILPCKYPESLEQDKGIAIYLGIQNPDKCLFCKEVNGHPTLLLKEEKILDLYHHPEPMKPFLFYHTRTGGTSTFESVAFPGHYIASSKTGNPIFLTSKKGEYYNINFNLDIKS

[2] = tested on: IL-36γ evoked CXCL1 release from Mouse NIH-3T3 cells; assay: IL-36γ evoked CXCL1 release, mouse NIH-3T3 cells; format: cell-based; conditions: human IL-36γ evoked CXCL1 release, ± S.D.
Procedure: The immortalized human keratinocyte cell line HaCaT and mouse fibroblast NIH-3T3 cell line were maintained in culture in DMEM with 10% fetal bovine serum and 1% penicillin/streptomycin added (Sigma). Cells were seeded in 96-well tissue culture plates (Corning) at 25,000 cells per well and allowed to adhere and recover overnight at 37 °C in an incubator. Cells were rinsed with PBS (Sigma) and treated with cytokines diluted in 200 μL/well of the medium (DMEM with 0.5% FBS and 1% penicillin/streptomycin) as indicated. In inhibition mode, the agonist concentration used was at the EC80 for chemokine production and the cells were pre-treated with inhibitors for 30 min prior to adding the agonist. After 24 h of treatment, supernatants were collected and IL-8 and CXCL1[28] levels were assessed using a custom immunoassay (Meso Scale Discovery). EC50/IC50 values were estimated from a four-parameter logistic fit using Prism software (GraphPad).

[3] = biological target: T2, human IL-36β (Homo sapiens, UniProt Q9NZH7); assay: Affinity for human IL-36β; format: binding
T2 sequence (Q9NZH7 5-164): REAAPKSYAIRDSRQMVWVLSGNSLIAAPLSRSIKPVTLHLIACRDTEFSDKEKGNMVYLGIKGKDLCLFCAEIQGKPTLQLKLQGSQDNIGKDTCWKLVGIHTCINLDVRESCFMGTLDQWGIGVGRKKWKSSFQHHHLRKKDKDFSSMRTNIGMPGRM

[4] = biological target: T3, human IL-36γ (Homo sapiens, UniProt Q9NZH8); assay: Thermal shift assay, human IL-36γ; format: binding; conditions: 100 μM compound; read-out: increase of melting temperature of human IL-36γ
T3 construct: His6-SUMO-human IL-36γ (18–169); His6-SUMO (N, cleaved yes); made in house; host or cells: E. coli BL21 (DE3)
T3 sequence (Q9NZH8 18-169): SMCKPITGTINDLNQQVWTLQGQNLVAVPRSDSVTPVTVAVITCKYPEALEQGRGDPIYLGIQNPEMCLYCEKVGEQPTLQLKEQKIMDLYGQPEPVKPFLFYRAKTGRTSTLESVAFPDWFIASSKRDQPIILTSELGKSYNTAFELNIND
Procedure: Thermal shift assays[30] were performed on a Roche LightCycler 480 instrument using Sypro Orange Dye (Invitrogen). Reactions consisted of 0.5–2 µM purified recombinant protein in PBS, pH 7.4, a 1/500 dilution of the stock Sypro Orange reagent, and 100 µM test compounds, resulting in a final DMSO concentration of 1%. The samples were heated from 20 °C to 95 °C at a rate of 0.25 °C per second.

[5] = tested on: 3D human skin equivalents; assay: IL-36γ induced 3D skin equivalent model; format: cell-based
Procedure: Hematoxylin & eosin (H&E) staining and immunohistochemistry (IHC) were performed using a Leica ST5010 autostainer or Leica Bond RX automated immunostainer. Standardized IHC protocols were used for anti-loricrin staining (Abcam AB85679). Stained tissue slides were digitized for image analysis using a Perkin Elmer P250 whole slide digital pathology slide scanner with 20X objective and extended focus scanning parameters. For quantitative analysis, N = 3 raft samples were analyzed per condition for each stain using whole slide digital analysis software (Indica Labs HALO). Staining was normalized to the length of the raft sample analyzed.
3D skin equivalents (SOR-300-FT-CTR) comprised of human neonatal keratinocytes and fibroblasts were purchased from MatTek, equilibrated for one day in proprietary formulated media (SOR-300-FT-CTR-MM) and then treated as indicated. Treatment groups contained hIL-36γ at 300 ng/mL, 10 μM of A-552, 10 μg/mL anti-IL36R antibody, 10 μg/mL IL-36RA, or 10 μg/mL IgG isotype control either alone or in combination with hIL-36γ. Control skin equivalents were treated with media only. Skin equivalents were treated for three days, with media collected for cytokine release studies at day two and replaced with fresh treatment media. After three days the skin equivalents were either placed in 10% neutral buffered formalin solution (for histology) or frozen (for qRT-PCR).
To measure IL-6, IL-8 and CXCL1 release from 3D skin equivalents diluted sample media collected at day 2 of the treatment (see above) was used in conjunction with V-PLEX multiplex immunoassay for IL-6 and IL-8 and a U-PLEX immunoassay for CXCL1 (Meso Scale Discovery) according to the manufacturers’ protocols.
RNA from frozen 3D skin equivalents was isolated using miRNeasy Mini Kit (Qiagen) per the manufacturers’ instructions. For qRT-PCR determination a CFX384 Real-Time System C1000 Touch Thermocycler was used. […] Each transcript measured was presented as a fold change compared to control using the ∆∆CT method as RNA fold increase where RPLP0 was used as a housekeeping gene.

[6] = tested on: human IL-36γ induced plasma CXCL1; assay: hIL-36γ induced CXCL1 release in mouse plasma; format: in vivo; conditions: C57BL/6 mice, compounds 10, 30 and 100 mg/kg p.o.; antibody i.p.
From the text: Female C57BL/6 mice (9–10 weeks old, 19–23 g) were purchased from Charles River Laboratories. All animal procedures were approved by AbbVie’s Institutional Animal Care and Use Committee (IACUC) and performed in accordance with the relevant IACUC guidelines and regulations. To examine engagement of human IL-36γ with antagonists under in vivo conditions, a mouse acute CXCL1 release assay was established which was similar to one previously reported. Plasma CXCL1 secretion was induced by subcutaneous injection of 2 μg human IL-36γ (in 100 μL PBS) into C57BL/6 mice. Blood was withdrawn via cardiac puncture 2 h after the challenge with IL-36γ. A-552 and A-553 were dosed at 10, 30 and 100 mg/kg p.o. 45 min before IL-36γ challenge. Anti-IL36R antibodies were dosed i.p. at 24 hours before IL-36γ challenge. Plasma CXCL1 levels were analyzed using MSD V-PLEX kit.

affinity for mouse IL-36γ [1]: does not show affinity | affinity for human IL-36β [3]: does not show affinity | ΔTm at 100 µM [4]: 6.1 °C
SMILES: COC(c1ccccc1)(c1ccccc1)[C@H](Oc1nc(C)cc(-c2ccc(C)c(N)c2)n1)C(=O)O [Compound A-552]
Ki [2]: 54 ± 10 nM | effect on hIL-36γ induced changes in morphology, gene expression and cytokine production ([5]; 0.3 μg/mL hIL-36γ, 10 μM A-552, 10 μg/mL antibody or IL-36Ra, three days): attenuated | effect on 3D human skin equivalents when treated alone ([5]; without hIL-36γ): no appreciable effect | effect on hIL-36γ induced plasma CXCL1 release (in words) [6]: robustly attenuated CXCL1 levels in plasma in a dose-dependent manner
